These results are taken from patent US20110190237A1, “Macrocyclic Prodrug Compounds Useful as Therapeutics” (NEXGENIX PHARMACEUTICALS, priority 2008, published 2011).

pIC50: −log10 of the molar value. Values after ≈ are worked out from the molar mass of the structure shown. Like-named read-outs stand apart in the source and are kept apart here. A value given as a limit tells only on which side of the number the result lay.

The nature of data set [1]: In vitro conversion/stability of prodrug in plasma. The data set is classed as in vitro ADME. Particulars: mouse plasma; at 60 minutes. The protocol: (§1) Hydrolysis of prodrug in vivo was estimated by incubating phosphate prodrugs in vitro with mouse small intestine and liver homogenates, mouse plasma, and artificial gastric fluid. Plasma was freshly collected from nude mice. Liver and intestine homogenates were prepared by adding 3 volume of saline to freshly collected mouse tissues and homogenized using glass homogenizer. Gastric fluid was prepared by adding 80 mL of 1M hydrochloric acid to 800 mL of water and then supplementing with 2.0 g of sodium chloride and 3.2 g of pepsin powder. The final volume of the artificial gastric fluid was adjusted with water to 1000 mL (pH=1.1). […] 100 μL samples were collected at 0, 2, 5, 15, 30 and 60 minutes. 5 volumes methanol containing internal standard was added immediately. For samples from gastric fluid incubation, 1 volume of 0.01 M Sodium hydroxide was added before injection into LC/MS/MS. All samples were analyzed by LC/MS/MS to quantitate the concentration of 1a, 1b and the corresponding parent drugs. The concentration of the parent drugs of 1a and 1b was quantitated using standard curve prepared using each vehicle.
(§2) We then evaluate other prodrug conversion in vitro using tissue homogenates and a mimic of gastric fluid (pepsin solution at pH 1.1).

The nature of data set [2]: In vitro conversion/stability of prodrug in artificial gastric fluid (pepsin solution, pH 1.1). The data set is classed as in vitro ADME. Conditions: artificial gastric fluid pH 1.1; at 60 minutes. The protocol:
as §1, §2

Data set [3] in a line: In vitro partition between plasma and cells in mouse whole blood. The data set is classed as in vitro ADME. Conditions: for Test article concentration in cellular elements / Test article concentration in plasma: mouse whole blood spiked at 5 μg/mL, 37° C.; for Partition of the test articles between plasma and cells: mouse whole blood, 5 μg/mL. The protocol:
The whole blood was withdrawn from mice via cardio-puncture and placed in EDTA anticoagulant tubes. The test articles were spiked to whole blood at final concentration of 5 μg/mL (at least 2 mL) and incubated at 37° C. 200 μL whole blood was taken at 0 (immediate after incubation), 5 min, 15 min and 30 min and then was centrifuged to separate plasma and cellular elements. Plasma was transferred to clean tubes. 50 μL of plasma and cellular elements were processed by addition of 3 volumes (150 μl) of ice-cold methanol. After centrifugation, the supernatants were subjected to LC-MS/MS analysis of test articles in both plasma and cellular elements.

Data set [4] is described as follows: Solubility of phosphate prodrugs in organic- and aqueous-based media. The data set is classed as physicochemical. Conditions: for solubility: read-out: Maximum observed solubility. As to the method:
Crystalline phosphate drugs 1a and 1b were tested first in several different organic- and aqueous-based media, including water, PBS, ETOH, DMA, CMC, and PG.
The maximum observed solubilities with small lots of crystalline drug in 4-mL glass clear tubes were: […]

Data set [5] in a line: Solubility for oral formulation of PU24FCl. The data set is classed as physicochemical. Conditions: in our hands. From the text: More recently, other novel non-natural product Hsp90 inhibitors have been reported (e.g. PU3 and CCT018159; see Chiosis et. al. Bioorg. Med. Chem. Lett. 2002, 10, 3555-3564; Vilenchik et. al. Chem. Biol. 2004, 11, 787-797; Chiosis et. al. WO 0236075, 2002; Drysdale et. al. WO 03/055860 A1, 2003; Wright et. al. Chem. Biol. 2004, 11, 775-785; Dymock et. al. Bioorg. Med. Chem. Lett. 2004, 14, 325-328; Dymock et. al. J. Med. Chem. 2005, 48, 4212-4215. Structure of Hsp90 in complex with PU3 pdb code 1UY6, and with PU24FCl: pdb code 1UYF and Clevenger et. al. Org. Lett. 2004, 6, 4459-4462). […] The 8-benzyladenines such as PU3 were designed to adopt the same C-shaped conformation as geldanamycin (Chiosis et. al. Current Cancer Drug Targets, 2003, 3, 371-376) with the adenine ring pointing to the adenine-binding site (hinge region), and the trimethoxybenzene ring emulating the H-bond accepting nature of the quinone ring of geldanamycin. […]

A further data set relates to MCF-7 xenograft tumors. Conditions: mice bearing MCF-7 xenograft tumors; intraperitoneally, 200 mg/kg; DMSO/EtOH/phosphate-buffered saline 1:1:1; cited from earlier work.
A further data set deals with BT474 (breast). The data set is described as follows: Cell proliferation assay (ATPlite), BT474. The data set is classed as cell-based. Conditions: read-out: Growth inhibition (IC50).
A further data set relates to MDA231 (breast). The data set is described as follows: Cell proliferation assay (ATPlite), MDA231. Conditions: 4 days, read-out: Growth inhibition (IC50). The data set is classed as cell-based.
A further data set relates to MDA-MB468 (breast). The data set is described as follows: Cell proliferation assay (ATPlite), MDA-MB468. The data set is classed as cell-based. Particulars: for pIC50: read-out: Growth inhibition (IC50).
The subject of another data set is N87 (gastric). In words: Cell proliferation assay (ATPlite), N87. The data set is classed as cell-based. Conditions: read-out: Growth inhibition (IC50).
In another data set the test system is K562 (leukemia). The data set is described as follows: Cell proliferation assay (ATPlite), K562. The data set is classed as cell-based. Particulars: 4 days, read-out: Growth inhibition (IC50).
The subject of another data set is MV4;11 (leukemia). In words: Cell proliferation assay (ATPlite), MV4;11. The data set is classed as cell-based. Conditions: 4 days, read-out: Growth inhibition (IC50).
The subject of a further data set is HCT116 (colon). In words: Cell proliferation assay (ATPlite), HCT116. Conditions: 4 days, read-out: Growth inhibition (IC50). The data set is classed as cell-based.
A further data set relates to HCC827 (lung). In words: Cell proliferation assay (ATPlite), HCC827. The data set is classed as cell-based. Particulars: 4 days, read-out: Growth inhibition (IC50). The protocol: (§3) Cell proliferation assays were performed in various oncology cell lines, including breast cancer (BT474 and MDA-MB468), leukemia (K562 CML and MV4;11 AML), colon (HCT116), prostate cancer (PC-3), Tarceva- and Iressa-resistant non-small cell lung cancer (NSCLC, […] and H1975), gastric cancer (N87) as well as glioblastoma (A172) cell lines. […] Cell viability at day 4 was measured by the amount of ATP present in viable cells using ATPlite assay kit according to manufacturer's protocol (Perkin Elmer, Boston, Mass.). IC50 was calculated by fitting the data using XLfit software.

The subject of a further data set is H1975 (lung). The data set is described as follows: Cell proliferation assay (ATPlite), H1975. The data set is classed as cell-based. Particulars: 4 days, read-out: Growth inhibition (IC50). As to the method:
as §3

For another data set, the system named is A172(glioblastoma). The data set is described as follows: Cell proliferation assay (ATPlite), A172. The data set is classed as cell-based. Particulars: 4 days, read-out: Growth inhibition (IC50). As to the method: as §3
The next data set addresses HSP90α (Homo sapiens, UniProt P07900). In words: HSP90α affinity. The data set is classed as binding.
The mark [6] stands for this setting: BT474 (breast), 4 days, cell viability by ATPlite.
The mark [7] stands for this setting: MDA-MB468 (breast), 4 days, ATPlite.

`O=C1OCC/C=C/CC/C=C/C(=N\OCC(=O)N2CCCCC2)Cc2c(Cl)c(OP(=O)(O)O)cc(O)c21` [Compound 1a]: in data set [1], the “Prodrug intact in plasma” value is recorded as “about 90%”. Further, the “Prodrug intact in artificial gastric fluid” value in data set [2] is recorded as “about 70%”. Further, the “Test article concentration in cellular elements” value amounted to 1893.93 ng/mL in data set [3] (0 min), 1632.69 ng/mL in data set [3] (5 min), 1655.20 ng/mL in data set [3] (15 min) and 1956.15 ng/mL in data set [3] (30 min). For the same molecule, the “Test article concentration in plasma” value in [3] (0 min) is recorded as 7988.91 ng/mL; in data set [3] (5 min) it was 7654.94 ng/mL; in data set [3] (15 min) it was 8123.27 ng/mL; in data set [3] (30 min) it was 9680.38 ng/mL. For the same molecule, in data set [3], the “Partition of the test articles between plasma and cells” value is “The concentration of 1a and 1b in plasma is larger than the nominated concentration in whole blood (5 μg/mL), which indicated that the partition of the test articles was mainly in plasma”. Moreover, the solubility in [4] (0.5% CMC/0.1% Tween-20/0.45% NaCl) was 87.5 mg/mL (≈ 157 mM); in data set [4] (PBS), 55 mg/mL (≈ 98.8 mM). In data set [4], the “Solubility in water and PBS compared to the parent drugs” value was “very soluble”.
With `C#CCCCn1c(Cc2cc(OC)c(OC)c(OC)c2Cl)nc2c(N)nc(F)nc21` [PU24FCl], the “Solubility for oral formulation and delivery” value in [5] is recorded as “too insoluble”. Besides, in the data set on MCF-7 xenograft tumors, the “Tumor growth” value was “significantly repressed tumor growth”.
`O=C1OCC/C=C/CC/C=C/C(=N\OCC(=O)N2CCCCC2)Cc2c(Cl)c(O)cc(O)c21` [1a parent]: the pIC50 in the data set with BT474 (breast) (setting [6]) was 8.15; with MDA231 (breast) it was 8.15; in the data set with MDA-MB468 (breast) (setting [7]), 8.05; in the data set with N87 (gastric) (N87 (gastric), 4 days, ATPlite), 8.40; in the data set on K562 (leukemia), 8.22; with MV4;11 (leukemia), 8.52. In addition, the pIC50 with HCT116 (colon) is 8.05; in the data set with HCC827 (lung), 7.51; in the data set on H1975 (lung), 7.60; in the data set on A172(glioblastoma), 7.38. The molecule also displayed an HSP90α affinity at HSP90α of 21 nM.
For the molecule `C=CCNC1=C2C[C@@H](C)C[C@H](OC)[C@H](O)[C@@H](C)/C=C(\C)[C@H](OC(N)=O)[C@@H](OC)/C=C\C=C(/C)C(=O)NC(=CC1=O)C2=O` [Compound 17AAG, 17-allylamino-17-demethoxygeldanamycin, reference compound], the pIC50 in the data set on BT474 (breast) (setting [6]) was 8.30; in the data set with MDA-MB468 (breast) (setting [7]) it was 6.11; in the data set on N87 (gastric) (N87 (gastric), 4 days, ATPlite), 9.00; in the data set on K562 (leukemia), 7.32; in the data set with MV4;11 (leukemia) it was 7.96; in the data set with HCC827 (lung) it was 7.25. Further, in the data set on H1975 (lung), the pIC50 was 7.46. In the data set with MDA-MB468 (breast) (MDA-MB468), the “Anti-proliferative activity against MDA-MB468” value is “significantly less sensitive”.
Take `O=C1OCC/C=C/CC/C=C/C(=N\OCC(=O)N2CCCCC2)Cc2cc(O)cc(O)c21` [1b parent]: the pIC50 in the data set with BT474 (breast) (setting [6]) is 8.70; in the data set on MDA231 (breast), 8.70; in the data set with MDA-MB468 (breast) (setting [7]) it was 8.70; in the data set with N87 (gastric) (N87 (gastric), 4 days, ATPlite) it was 9.00; in the data set on K562 (leukemia), 8.40; in the data set with MV4;11 (leukemia) it was 8.70. Also, the pIC50 in the data set on HCT116 (colon) is 7.96. The same molecule returned an HSP90α affinity at HSP90α of 15 nM.
Regarding `O=C1OCC/C=C/CC/C=C/C(=N\OCC(=O)N2CCCCC2)Cc2cc(OP(=O)(O)O)cc(O)c21` [Compound 1b], the pIC50 in the data set on BT474 (breast) (Homo sapiens, BT-474, 96 h) was 7.85; with MDA-MB468 (breast) (Homo sapiens, MDA-MB-468, 96 h) it was 7.43; in the data set with N87 (gastric) (96 h) it was 7.72. The “Binding to Hsp90 in vitro” value on HSP90α was “does not bind”. Also, on HSP90α, the HSP90α affinity is reported as >10 000 nM. In data set [1], the “Prodrug intact in plasma” value is reported as “about 90%”. Further, in [2], the “Prodrug intact in artificial gastric fluid” value is reported as “about 70%”. Also, the “Test article concentration in cellular elements” value in data set [3] (0 min) was 1999.60 ng/mL; in data set [3] (5 min), 1364.01 ng/mL; in [3] (15 min) it was 1070.97 ng/mL; in data set [3] (30 min), 1237.82 ng/mL. Also, the “Test article concentration in plasma” value was 7119.50 ng/mL in [3] (0 min), 7833.27 ng/mL in data set [3] (5 min), 7672.71 ng/mL in data set [3] (15 min) and 7409.47 ng/mL in data set [3] (30 min). Besides, the “Partition of the test articles between plasma and cells” value in [3] was “The concentration of 1a and 1b in plasma is larger than the nominated concentration in whole blood (5 μg/mL), which indicated that the partition of the test articles was mainly in plasma”. Further, in data set [4], the “Solubility in water and PBS compared to the parent drugs” value is given as “very soluble”.
